Measured values as given in US11479770B2, “Use of p38 inhibitors to reduce expression of DUX4” (Fulcrum Therapeutics, Inc., priority 2017, dated 2022).

What was measured:
[1] = test system: p38 system (phospho MK2 to total MK2 ratio); assay: Rat PD: phospho MK2 to total MK2 ratio in trapezius muscle; type: in vivo
Description: Approximately 50 mg of muscle tissue was placed on dry ice. Muscle samples were cut, as needed to obtain the 50 mg weight using a clean razor blade per specimen. 50 mg of muscle tissue was placed into a pre-labeled TT1 Covaris bag (Covaris, MA, USA) and kept on dry ice. The TT1 Covaris bag was submerged in liquid nitrogen and the sample was cryofractured in the Covaris cryoPREP (Covaris, MA, USA) on setting “5”. The TT1 bag was rotated 180° and steps 2-a were repeated. The sample was transferred into a pre-weighed/labeled tube and maintained on dry ice until all samples were prepared. Sample weights were recorded. RIPA lysis buffer was prepared (R0278-500ML, Sigma, MO, USA). For 10 ml, two Roche PhosSTOP phosphatase inhibitor tablets and one Roche EDTA-free protease inhibitor tablet were added. To the cryofractured material, 8 μl per mg of RIPA buffer were added to each tube and each tube was vortexed until the lysate was homogeneous. Lysates were maintained on ice until all samples were processed. The lysate was cleared by centrifugation at 13,000 g for 5 minutes at 4° C. The supernatant was transferred to a new tube and snap frozen in liquid nitrogen (setting aside […] for protein assay). To measure the protein content of each sample, a Bradford DC protein assay (5000112, Bio-Rad, CA, USA) was conducted. Samples were diluted 1:20 in PBS for protein assessment.
The homogenized trapezius muscle lysate was assessed using an internally developed Meso Scale Discovery (MSD) multiplexed phospho MK2/total MK2 immunoassay (Meso Scale Diagnostics, MD, USA). For each sample, 50 μL of muscle lysate, equal to 50 μg of protein, was loaded onto the MSD assay. Protein concentrations in muscle lysates were determined by a Bradford DC protein assay as described above. Samples were assessed in duplicate. Muscle samples were incubated on a pre-coated MSD plate overnight at 4° C. while on an orbital shaker (300 rpm) and assessed the following morning.

[2] = rat; oral; clinically relevant plasma exposures
Description: Male Sprague Dawley rats (6-8 weeks of age) were supplied by Hilltop Lab Animals, Inc. (USA). Following arrival at Wuxi AppTec, animals were assessed for their general health by a member of veterinary staff or other designated personnel. Animals were acclimated for at least 2 days (upon arrival at WuXi AppTec) before commencement of the study. Animals were individually housed during acclimation and throughout the study. The animal room environment was controlled according to facility operation (target conditions: temperature 20 to 26° C., relative humidity 30 to 70%, 12-hour cycle of lights on and off). Lights, temperature and relative humidity are constantly monitored by AmegaView Environmental Monitoring System. […] Water (reverse osmosis) was provided to the animals ad libitum. […] In study #FULTH-20171120 rats were fasted overnight prior to drug administration: rats were allowed free access to water at all times and were fed 4 hours post dosing. For study #FULTH-20171228 rats were allowed ad-libitum access to food and water throughout the study.
Dose volume was determined by measured body weight prior to dosing. […] Feeding condition: overnight fast, food return 4 hours after dosing.
Blood samples for PK: Approximately 100 μl of blood sample was obtained via jugular vein or tail vein at each pre-defined time point. […]

[3] = test system: MBD3L2 mRNA (DUX4 downstream gene); assay: MBD3L2 mRNA expression (qPCR) in FSHD myotubes; type: cell-based, human; conditions: 1 μM
Description: On day 0, the media was changed to differentiation media. Plates were removed from the incubator and the growth medium was aspirated, plates were washed once with PBS, 100 μL, for 96-wells and 1 mL for a 6-well plate, 100 μL, or 2 mL of differentiation medium was added per well, 96- or 6-well respectively. Antisense oligonucleotides or drug were added at the desired concentration, and the plates were put back in the incubator and incubated for 3-4 days.
Cells were removed from the incubator and media aspirated. Cells were quickly lysed following one of the following protocols: for lysis in 96-well plates, direct lysis and one-step RT-Preamp qPCR was performed according to the protocol described below. For each 96-well, a mix containing: 19.5 μL Roche Realtime Ready lysis buffer, 0.25 μL RNAse inhibitor, 0.25 μL DNAseI (from Thermo not the included one in the kit) was prepared. 20 μL of the mix was added to each well, mixed 5 times, and incubated 5 minutes at RT or alternatively shaken vigorously for 15 minutes. Lysis was observed under the microscope. Samples were frozen −80° C. at least for 15 minutes.
1-step RT-Preamplification was used for detection of DUX4 downstream genes, i.e., MBD3L2, ZSCAN4, LEUTX, TRIM43, KHDC1L, and POL2RA-VIC was used as endogenous control. Per 10 μL reaction, the reaction mix included: 2.25 μL of RNA (1:10 dilution lysate), 5 μL of Taqman Pre-Amp Master Mix (2×), 0.25 μL of RT enzyme mix (40×), 2.5 μL of Taqman probe set (0.2×)*. * For pooling the TaqMan Assays, equal volumes of each 20× TaqMan® Gene Expression Assay were used, and up to 100 assays were combined. For example, to pool 50 TaqMan assays, 10 μL of each assay were combined in a microcentrifuge tube. The pooled TaqMan assays were diluted using 1× TE buffer so that each assay was at a final concentration of 0.2×. For the above example, 500 μL of 1× TE buffer was added to the pooled TaqMan assays for a total final volume of 1 mL. The QuantStudio7 protocol was used at 48° C. 15 min, 95° C. 10 min, 10 cycles: 95° C. 15 sec, 60° C. 4 min, and 4° C. infinite Samples were then diluted to 50 μL and continued with the qPCR step. Per 10 μL reaction, the reaction mix included: 2 μL of Preamp dilution, 5 μL of Fast Advanced Taqman Master Mix (2×), 0.5 μL of Taqman probe set (20×), and 2.5 μL of H2O. When multiplexing, the volume was adjusted to 10 μL total. The following program was run on the QuantStudio7: 50° C. for 2 min, 95° C. for 30 sec, 40×, 95° C. for 5 sec, 60° C. for 30 sec, and plates were read as per the manufacturers specifications (Thermo).
Wild type myotubes and mature patient-derived FSHD myotubes that express DUX4 protein were treated with DMSO vehicle control or multiple concentrations of various p38α/β inhibitors with different ranges of isoform and kinome selectivity, including SB239063 (FIG. 4A), VX-702 (FIG. 4B), Pamapimod (FIG. 4C), and TAK-715 (FIG. 4D). After treatment, the control and treated cells were processed for realtime PCR quantification of MBD3L2 mRNA (DUX4 downstream gene) and myogenin (MYOG) mRNA (control) expression.

DUX4 target genes = assay: RNA-seq profiling of FSHD myotubes; type: cell-based, human; conditions: 1 μM
From the text: The 40 bp single-end reads from Illumina had good quality by checking with FastQC (http://www.bioinformatics.babraham.ac.uk/projects/fastqc/). Reads were mapped to hg19 using TopHat v2.1.1 (Kim et al., 2013) with options as “solexa1.3-quals” mode and “no-novel-juncs.” The gene model for TopHat was created by merging known gene in gtf format with kgXref table. Both known gene and kgXref were downloaded from UCSC table browser in hg19 assembly. The read counts were obtained using featureCounts function from Subread package with strandness option as −r 2. Reads were normalized with DESeq2 (Love et al., 2014).
The 40 bp single-end reads from Illumina had good quality by checking with FastQC (http://www.bioinformatics.babraham.ac.uk/projects/fastqc/). Reads were mapped to hg19 using TopHat v2.1.1. The gene model for TopHat was created by merging knownGene in gtf format with kgXref table. Both known gene and kgXref were downloaded from UCSC table browser in hg19 assembly. The read counts were obtained using feature Counts function from Subread package with strandness option as -r 2. Reads were normalized with DESeq2. […] Calculated standard RPKM expression values. […]
In addition, gene expression was also determined in wild type myotubes treated with DMSO. Three replicates for each condition were analyzed by RNA-seq and genes were clustered by the direction and intensity of change.

[4] = test system: DUX4 dependent target genes; assay: Predicted reduction of DUX4 dependent target genes in FSHD patient muscle; set-up: species or system human; conditions: from rat muscle concentrations and in vitro FSHD myotube data
Description: P38 system target engagement persisted for at least 12 hours following the single dose of FTX-1821 (FIG. 15). P38 system target engagement in trapezius muscle was maximal when plasma and muscle concentrations of FTX-1821 were greater than 20 ng.mL or ng.g and declined at timepoints when exposures decreased. The muscle concentrations of FTX-1821 achieved in the rat study are predicted to result in >70% reduction at Cmax in DUX4 dependent target genes in FSHD patient muscle biopsies based upon in vitro data in FSHD myotubes (above).

[5] = rat, single oral dose 0.3 mg/kg

Cc1c(F)cc(C(=O)NC2CC2)cc1-c1ccc(C(=O)NCC(C)(C)C)cn1 [FTX-1821]
plasma concentration at maximal inhibition of the p38 system in muscle ([1]; rat): greater than 20 ng/mL | plasma and muscle concentrations at maximal p38 system target engagement ([1]; rat trapezius muscle): greater than 20 ng.mL or ng.g | time to significant decrease of phospho MK2 to total MK2 ratio ([1]; rat trapezius, single oral dose 0.3 mg/kg): ≤ 1 h | persistence of p38 system target engagement [1, 5]: at least 12 hours | phospho MK2 to total MK2 ratio in trapezius muscle [1, 5]: significantly decreased | Muscle to plasma exposure ratios [2]: ≥ 1 | MBD3L2 mRNA in FSHD1 and FSHD2 primary patient myoblast lines ([3]; to levels similar to healthy control lines): reduction | MBD3L2 expression levels in four FSHD patient lines ([3]; FTCE-016, -020, -197, -196 myotubes, to levels similar to healthy controls): reduced | non-DUX4-regulated genes in total signature (DUX4 target genes; moderate fold changes): 9/86 | expression of differentially expressed (DUX4 pathway) genes by RNA-seq (DUX4 target genes; vs DMSO and wild type): normalized | predicted reduction at Cmax in DUX4 dependent target genes in FSHD patient muscle biopsies [4]: > 70%
